The record followed here is ChEMBL document CHEMBL5291721, “A preclinical secondary pharmacology resource illuminates target-adverse drug reaction associations of marketed drugs” (Nat Commun, 2023).

Usually AC50 stands for the concentration giving half of the maximal activity seen. High values mean activity only at high concentration, low ones activity at low concentration.

For test [1], the target named is Acetylcholinesterase (Homo sapiens, UniProt P22303). In kind it is functional.
Test [2] concerns the target T1, Alpha-1A adrenergic receptor (Homo sapiens, UniProt P35348).
T1 sequence (P35348 whole entry): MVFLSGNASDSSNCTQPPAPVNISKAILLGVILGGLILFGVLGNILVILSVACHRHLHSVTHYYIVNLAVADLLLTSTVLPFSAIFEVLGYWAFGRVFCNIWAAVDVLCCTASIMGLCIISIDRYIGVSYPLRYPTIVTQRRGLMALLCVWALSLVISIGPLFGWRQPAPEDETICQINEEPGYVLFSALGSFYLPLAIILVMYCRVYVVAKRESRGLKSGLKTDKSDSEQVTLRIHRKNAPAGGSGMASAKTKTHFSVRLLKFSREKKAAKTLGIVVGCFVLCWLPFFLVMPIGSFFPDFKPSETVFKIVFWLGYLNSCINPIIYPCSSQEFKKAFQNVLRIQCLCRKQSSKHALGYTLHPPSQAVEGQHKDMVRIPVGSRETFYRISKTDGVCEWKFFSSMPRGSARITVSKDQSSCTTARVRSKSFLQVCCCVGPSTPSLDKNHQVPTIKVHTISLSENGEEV
In kind it is functional, cell-based.

Test [3] concerns the target T1, Alpha-1A adrenergic receptor. It counts as functional, cell-based. This is another data set of the same source.
The target in test [4] is D(1A) dopamine receptor (Homo sapiens, UniProt P21728).
Chain of D(1A) dopamine receptor (P21728 whole entry): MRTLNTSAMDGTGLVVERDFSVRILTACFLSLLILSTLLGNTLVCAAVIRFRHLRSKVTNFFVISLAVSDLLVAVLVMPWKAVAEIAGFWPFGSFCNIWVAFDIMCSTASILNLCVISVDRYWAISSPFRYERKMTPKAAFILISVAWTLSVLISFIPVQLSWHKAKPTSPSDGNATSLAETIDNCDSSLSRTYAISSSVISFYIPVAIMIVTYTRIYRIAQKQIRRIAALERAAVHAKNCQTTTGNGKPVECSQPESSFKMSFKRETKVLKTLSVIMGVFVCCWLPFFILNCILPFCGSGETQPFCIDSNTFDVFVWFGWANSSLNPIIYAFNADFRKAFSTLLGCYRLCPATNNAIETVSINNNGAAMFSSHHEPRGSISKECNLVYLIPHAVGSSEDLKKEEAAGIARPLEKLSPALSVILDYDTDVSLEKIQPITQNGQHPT
Test [5] concerns the target T2, Estrogen receptor (Homo sapiens, UniProt P03372).
T2 sequence (P03372 whole entry): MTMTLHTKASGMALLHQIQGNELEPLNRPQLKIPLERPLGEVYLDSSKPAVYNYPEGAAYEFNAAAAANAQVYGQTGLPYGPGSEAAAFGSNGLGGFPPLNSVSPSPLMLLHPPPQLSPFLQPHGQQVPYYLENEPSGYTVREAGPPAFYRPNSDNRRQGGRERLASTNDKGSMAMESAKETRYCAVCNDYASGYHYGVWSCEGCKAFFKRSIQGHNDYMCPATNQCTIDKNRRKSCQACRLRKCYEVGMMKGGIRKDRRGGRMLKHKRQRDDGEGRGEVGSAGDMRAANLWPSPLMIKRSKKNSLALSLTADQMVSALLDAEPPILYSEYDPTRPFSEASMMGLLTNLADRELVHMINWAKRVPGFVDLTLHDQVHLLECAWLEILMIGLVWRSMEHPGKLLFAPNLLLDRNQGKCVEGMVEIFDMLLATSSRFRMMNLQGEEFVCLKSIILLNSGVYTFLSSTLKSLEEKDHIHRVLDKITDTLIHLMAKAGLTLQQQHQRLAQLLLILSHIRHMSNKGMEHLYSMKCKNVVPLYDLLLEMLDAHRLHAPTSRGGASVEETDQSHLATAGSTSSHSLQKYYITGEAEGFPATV

For test [6], the target named is Histamine H3 receptor (Homo sapiens, UniProt Q9Y5N1).
Chain of Histamine H3 receptor (Q9Y5N1 whole entry): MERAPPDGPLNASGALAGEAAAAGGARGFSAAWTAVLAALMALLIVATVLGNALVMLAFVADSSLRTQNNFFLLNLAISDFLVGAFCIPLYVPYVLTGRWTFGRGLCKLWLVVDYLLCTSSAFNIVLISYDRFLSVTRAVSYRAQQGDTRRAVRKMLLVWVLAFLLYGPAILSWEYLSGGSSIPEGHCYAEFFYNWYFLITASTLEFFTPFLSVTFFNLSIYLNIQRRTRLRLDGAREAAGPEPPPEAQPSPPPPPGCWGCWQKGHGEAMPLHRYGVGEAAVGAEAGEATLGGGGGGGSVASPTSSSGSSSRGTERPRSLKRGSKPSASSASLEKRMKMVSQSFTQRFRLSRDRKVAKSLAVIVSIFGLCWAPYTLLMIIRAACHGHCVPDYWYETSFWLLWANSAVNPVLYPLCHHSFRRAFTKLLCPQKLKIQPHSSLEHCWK
The target of test [7] is T3, 5-hydroxytryptamine receptor 1A (Homo sapiens, UniProt P08908).
T3 sequence (P08908 whole entry): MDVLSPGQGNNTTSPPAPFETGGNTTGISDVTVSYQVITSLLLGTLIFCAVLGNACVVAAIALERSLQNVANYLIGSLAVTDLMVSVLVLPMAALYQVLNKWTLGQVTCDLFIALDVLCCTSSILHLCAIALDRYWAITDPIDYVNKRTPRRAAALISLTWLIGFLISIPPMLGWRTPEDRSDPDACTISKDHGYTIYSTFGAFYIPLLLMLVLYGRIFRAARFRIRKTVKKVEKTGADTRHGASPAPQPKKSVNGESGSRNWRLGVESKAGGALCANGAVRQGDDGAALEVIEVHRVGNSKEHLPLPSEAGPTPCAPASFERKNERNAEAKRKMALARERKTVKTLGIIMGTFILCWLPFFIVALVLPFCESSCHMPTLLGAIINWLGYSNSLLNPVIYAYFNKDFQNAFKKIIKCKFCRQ

The target of test [8] is Vascular endothelial growth factor receptor 2 (Homo sapiens, UniProt P35968). It counts as functional.
Chain of Vascular endothelial growth factor receptor 2 (P35968 whole entry): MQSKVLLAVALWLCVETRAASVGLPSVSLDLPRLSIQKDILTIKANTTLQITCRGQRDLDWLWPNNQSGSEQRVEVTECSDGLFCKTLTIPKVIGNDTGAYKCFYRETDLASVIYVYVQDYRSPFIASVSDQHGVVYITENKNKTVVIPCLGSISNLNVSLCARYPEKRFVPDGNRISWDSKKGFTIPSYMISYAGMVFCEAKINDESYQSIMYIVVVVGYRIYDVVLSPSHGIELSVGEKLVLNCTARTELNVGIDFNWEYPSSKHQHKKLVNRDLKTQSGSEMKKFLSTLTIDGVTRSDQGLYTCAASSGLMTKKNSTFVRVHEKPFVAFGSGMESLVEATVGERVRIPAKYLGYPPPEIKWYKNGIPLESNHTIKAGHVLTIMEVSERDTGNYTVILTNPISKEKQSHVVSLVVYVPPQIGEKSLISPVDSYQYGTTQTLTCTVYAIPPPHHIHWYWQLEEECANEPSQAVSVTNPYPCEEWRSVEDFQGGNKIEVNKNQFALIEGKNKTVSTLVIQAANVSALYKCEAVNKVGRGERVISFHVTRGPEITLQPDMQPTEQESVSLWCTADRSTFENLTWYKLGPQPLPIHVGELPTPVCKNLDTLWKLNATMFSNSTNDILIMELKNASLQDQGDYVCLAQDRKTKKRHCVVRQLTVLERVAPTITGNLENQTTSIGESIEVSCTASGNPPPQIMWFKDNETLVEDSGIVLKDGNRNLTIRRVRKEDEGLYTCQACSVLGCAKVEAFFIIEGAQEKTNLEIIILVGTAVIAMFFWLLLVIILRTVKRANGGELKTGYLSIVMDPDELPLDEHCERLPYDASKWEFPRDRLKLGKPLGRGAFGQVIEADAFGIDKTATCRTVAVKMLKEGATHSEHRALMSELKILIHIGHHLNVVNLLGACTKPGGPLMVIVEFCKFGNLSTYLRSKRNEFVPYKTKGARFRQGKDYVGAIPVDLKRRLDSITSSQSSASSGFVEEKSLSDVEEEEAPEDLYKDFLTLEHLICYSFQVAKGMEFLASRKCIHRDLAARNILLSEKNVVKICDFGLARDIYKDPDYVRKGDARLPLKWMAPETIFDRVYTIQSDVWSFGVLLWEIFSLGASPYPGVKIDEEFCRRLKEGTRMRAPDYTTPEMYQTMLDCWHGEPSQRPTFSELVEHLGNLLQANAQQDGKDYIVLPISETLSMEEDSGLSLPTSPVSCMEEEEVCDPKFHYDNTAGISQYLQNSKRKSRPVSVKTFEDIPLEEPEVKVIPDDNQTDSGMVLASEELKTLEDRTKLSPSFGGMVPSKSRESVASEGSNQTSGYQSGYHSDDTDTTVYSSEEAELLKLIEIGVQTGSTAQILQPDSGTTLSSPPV
The target in test [9] is T4, Amine oxidase [flavin-containing] A (Homo sapiens, UniProt P21397).
T4 sequence (P21397 whole entry): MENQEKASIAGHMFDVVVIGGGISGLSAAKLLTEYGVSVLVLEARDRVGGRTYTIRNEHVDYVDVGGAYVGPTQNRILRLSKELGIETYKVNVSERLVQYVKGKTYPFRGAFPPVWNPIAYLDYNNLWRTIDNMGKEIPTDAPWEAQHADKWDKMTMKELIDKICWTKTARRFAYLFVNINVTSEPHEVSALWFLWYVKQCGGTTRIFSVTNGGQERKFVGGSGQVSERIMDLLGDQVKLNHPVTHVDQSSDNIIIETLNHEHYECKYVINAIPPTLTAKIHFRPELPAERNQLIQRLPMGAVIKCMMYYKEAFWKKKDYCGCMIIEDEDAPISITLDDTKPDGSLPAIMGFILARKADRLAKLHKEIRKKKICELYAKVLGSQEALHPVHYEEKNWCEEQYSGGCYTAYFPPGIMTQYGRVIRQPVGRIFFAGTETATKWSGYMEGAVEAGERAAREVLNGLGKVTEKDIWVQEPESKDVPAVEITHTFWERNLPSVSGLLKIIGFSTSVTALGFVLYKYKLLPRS
It counts as functional.

The target of test [10] is Mu-type opioid receptor (Homo sapiens, UniProt P35372).
Chain of Mu-type opioid receptor (P35372 whole entry): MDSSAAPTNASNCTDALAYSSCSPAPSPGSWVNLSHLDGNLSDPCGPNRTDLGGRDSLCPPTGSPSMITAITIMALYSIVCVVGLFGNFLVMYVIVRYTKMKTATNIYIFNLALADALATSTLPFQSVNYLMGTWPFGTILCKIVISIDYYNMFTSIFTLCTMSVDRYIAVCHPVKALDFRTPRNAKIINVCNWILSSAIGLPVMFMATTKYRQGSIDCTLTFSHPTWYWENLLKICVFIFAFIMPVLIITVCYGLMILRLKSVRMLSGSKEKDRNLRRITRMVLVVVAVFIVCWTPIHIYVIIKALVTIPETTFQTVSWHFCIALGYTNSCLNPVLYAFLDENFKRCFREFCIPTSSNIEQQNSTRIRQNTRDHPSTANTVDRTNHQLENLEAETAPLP
Test [11] concerns the target Prostaglandin G/H synthase 1 (Homo sapiens, UniProt P23219). In kind it is functional.
Test [12] has as its target Sodium-dependent noradrenaline transporter (Homo sapiens, UniProt P23975).
Test [13] addresses Sodium-dependent dopamine transporter (Homo sapiens, UniProt Q01959).
Test [14] concerns the target T5, Thromboxane A2 receptor (Homo sapiens, UniProt P21731).
T5 sequence (P21731 whole entry): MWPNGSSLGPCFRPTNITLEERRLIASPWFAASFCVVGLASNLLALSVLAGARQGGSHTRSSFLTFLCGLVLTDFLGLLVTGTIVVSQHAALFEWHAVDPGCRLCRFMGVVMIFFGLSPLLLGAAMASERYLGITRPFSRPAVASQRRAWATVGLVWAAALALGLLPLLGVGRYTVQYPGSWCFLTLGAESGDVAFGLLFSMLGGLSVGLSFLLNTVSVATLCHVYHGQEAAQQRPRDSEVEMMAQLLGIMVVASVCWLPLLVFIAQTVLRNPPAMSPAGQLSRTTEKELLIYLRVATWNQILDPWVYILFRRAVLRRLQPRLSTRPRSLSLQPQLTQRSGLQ
It counts as functional, cell-based.
Further: assay procedure not described here.

Chain of Prostaglandin G/H synthase 1 (P23219 whole entry): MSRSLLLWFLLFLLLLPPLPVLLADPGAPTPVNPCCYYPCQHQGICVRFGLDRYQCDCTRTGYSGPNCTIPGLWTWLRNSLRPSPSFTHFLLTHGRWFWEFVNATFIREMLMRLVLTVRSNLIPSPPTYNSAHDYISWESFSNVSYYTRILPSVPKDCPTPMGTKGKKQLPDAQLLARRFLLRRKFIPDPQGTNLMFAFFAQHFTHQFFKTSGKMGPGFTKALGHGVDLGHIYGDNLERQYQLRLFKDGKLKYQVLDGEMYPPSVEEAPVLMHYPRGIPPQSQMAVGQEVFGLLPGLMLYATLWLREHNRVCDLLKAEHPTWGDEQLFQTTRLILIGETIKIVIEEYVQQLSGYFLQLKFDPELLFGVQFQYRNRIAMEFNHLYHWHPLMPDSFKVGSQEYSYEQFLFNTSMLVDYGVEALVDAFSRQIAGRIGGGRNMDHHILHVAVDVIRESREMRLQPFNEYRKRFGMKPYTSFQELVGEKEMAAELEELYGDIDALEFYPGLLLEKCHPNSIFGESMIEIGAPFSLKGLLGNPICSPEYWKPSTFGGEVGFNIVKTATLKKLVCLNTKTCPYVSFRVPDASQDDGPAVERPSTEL
Chain of Sodium-dependent noradrenaline transporter (P23975 whole entry): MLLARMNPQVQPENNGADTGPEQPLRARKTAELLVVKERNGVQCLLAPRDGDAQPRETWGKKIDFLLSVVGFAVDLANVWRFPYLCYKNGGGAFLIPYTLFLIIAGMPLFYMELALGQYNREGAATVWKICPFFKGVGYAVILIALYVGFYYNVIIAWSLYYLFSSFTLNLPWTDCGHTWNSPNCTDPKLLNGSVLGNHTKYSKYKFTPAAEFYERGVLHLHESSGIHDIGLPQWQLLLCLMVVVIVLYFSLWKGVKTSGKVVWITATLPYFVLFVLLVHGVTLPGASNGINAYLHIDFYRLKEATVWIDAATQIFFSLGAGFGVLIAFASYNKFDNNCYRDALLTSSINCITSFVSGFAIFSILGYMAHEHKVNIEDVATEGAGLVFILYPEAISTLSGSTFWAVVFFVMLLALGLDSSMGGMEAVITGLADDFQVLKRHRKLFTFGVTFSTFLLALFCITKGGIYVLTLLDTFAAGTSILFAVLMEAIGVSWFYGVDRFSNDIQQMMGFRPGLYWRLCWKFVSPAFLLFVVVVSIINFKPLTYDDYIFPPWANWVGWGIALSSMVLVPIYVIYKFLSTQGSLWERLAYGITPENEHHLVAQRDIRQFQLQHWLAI
Chain of Acetylcholinesterase (P22303 whole entry): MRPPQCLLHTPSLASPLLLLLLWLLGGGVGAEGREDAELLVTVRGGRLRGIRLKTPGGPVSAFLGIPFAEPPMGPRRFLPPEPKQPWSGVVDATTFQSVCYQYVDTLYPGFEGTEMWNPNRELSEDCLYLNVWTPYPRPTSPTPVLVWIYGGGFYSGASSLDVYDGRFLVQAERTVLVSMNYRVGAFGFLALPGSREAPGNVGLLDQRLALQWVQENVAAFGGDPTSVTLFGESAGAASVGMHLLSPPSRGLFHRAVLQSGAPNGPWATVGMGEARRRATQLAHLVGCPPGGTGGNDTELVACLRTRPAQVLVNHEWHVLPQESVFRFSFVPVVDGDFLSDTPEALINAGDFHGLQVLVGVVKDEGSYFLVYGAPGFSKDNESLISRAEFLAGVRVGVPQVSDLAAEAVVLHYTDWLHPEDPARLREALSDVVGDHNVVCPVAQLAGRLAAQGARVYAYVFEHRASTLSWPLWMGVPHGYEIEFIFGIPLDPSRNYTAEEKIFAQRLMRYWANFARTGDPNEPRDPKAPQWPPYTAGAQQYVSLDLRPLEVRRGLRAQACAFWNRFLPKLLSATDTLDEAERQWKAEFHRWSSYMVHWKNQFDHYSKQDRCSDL

Regarding `Cc1cn(-c2cc(NC(=O)c3ccc(C)c(Nc4nccc(-c5cnccn5)n4)c3)cc(C(F)(F)F)c2)cn1` [RADOTINIB], the AC50 is more than 10 µM in test [1]; more than 30 µM in test [2]; more than 30 µM in [3]; more than 30 µM in test [4]; more than 30 µM in test [5]; more than 30 µM in [6]. The AC50 in test [7] was more than 30 µM; in test [8], 1.54 µM; in test [9] it was more than 30 µM; in [10], more than 3 µM; in [11] it was 26 µM; in test [12] it was more than 30 µM. Moreover, the AC50 in test [13] and in [14] was more than 30 µM throughout.
As to `COC(=O)Nc1nc2cc(C(=O)c3ccc(F)cc3)ccc2[nH]1` [FLUBENDAZOLE], the AC50 in test [1], in [2], in [3], in [4], in test [5] and in test [6] was more than 30 µM in each case. Also, the half-maximal activity concentration (AC50) was more than 30 µM in test [7]; 0.386 µM in test [8]; more than 30 µM in test [9]; more than 30 µM in test [10]; 2.17 µM in test [11]; more than 10 µM in test [12]. The AC50 in test [13] and in test [14] was more than 30 µM throughout.
